In article PMC11050443, “Discovery of Strong 3-Nitro-2-Phenyl-2H-Chromene Analogues as Antitrypanosomal Agents and Inhibitors of Trypanosoma cruzi Glucokinase” (International Journal of Molecular Sciences, 2024):
Like-named read-outs stand apart in the source and are kept apart here.

Assays:
[1] = molecular target: T1, TcGlcK (Trypanosoma cruzi glucokinase) (Trypanosoma cruzi, UniProt Q4E4E1); assay: TcGlcK primary screening assay (LmG6PDH-coupled, Dixon plots); assay type: biochemical; details: for Mode of TcGlcK inhibition: Cornish-Bowden method, Dixon plots of [D-Glc]/V versus inhibitor concentration; for Ki: Dixon plots, 0.4, 0.6, 0.8 mM D-glucose, N = 1 unless marked, N = 3 for compounds 1, 4, 9, 11
T1 construct: made in house; host or cells: Escherichia coli BL21(DE3)
T1 sequence (Q4E4E1 1-376): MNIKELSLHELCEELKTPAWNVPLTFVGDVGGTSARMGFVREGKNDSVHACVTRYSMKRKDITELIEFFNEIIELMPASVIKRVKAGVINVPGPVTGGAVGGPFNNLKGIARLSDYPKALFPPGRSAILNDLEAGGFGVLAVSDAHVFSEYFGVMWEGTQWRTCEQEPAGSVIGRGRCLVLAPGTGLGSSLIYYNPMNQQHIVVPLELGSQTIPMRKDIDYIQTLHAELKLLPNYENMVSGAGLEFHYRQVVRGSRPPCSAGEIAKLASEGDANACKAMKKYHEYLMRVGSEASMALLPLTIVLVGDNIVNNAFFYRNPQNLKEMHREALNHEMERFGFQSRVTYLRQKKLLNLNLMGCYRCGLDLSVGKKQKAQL
Procedure: A primary screening assay was carried out for TcGlcK with the 3-nitro-2-phenyl-2H-chromene analogues. The data was subsequently processed for respective Ki values in order to assess enzyme inhibition. […] The primary screening assay was performed with the substrate D-glucose in various concentrations of 0.4 mM, 0.6 mM, and 0.8 mM to produce Dixon plots with different slopes. Each of the 3-nitro-2-phenyl-2H-chromene analogues were originally prepared at a working concentration of 1.0 mM and were dissolved in 100% DMSO. The final assay concentrations of the analogue compounds (inhibitors) ranged from 0.0–10.0 μM. The analogue compounds were pre-incubated with the enzyme system a minimum of 10 min prior to the initiation of the assay. The enzymatic reaction was carried out at room temperature (22 °C; temperature optimum) using ATP to initiate the reaction, and termination was performed after 120 s (time optimum) by stopping the reaction with the addition of an EDTA (pH 8.0) solution, to a final concentration of 100 mM. TcGlcK enzyme activity was analyzed for the production of NADPH. Each completed reaction mixture was added into a black, round-bottom microplate and scanned by a VANTAstar-F multi-mode microplate reader (BMG LABTECH, Inc.; Cary, NC, USA). The instrument was set to fluorescence mode and the wavelengths (λex = 340 nm; λem = 485 nm) were set to observe the relative fluorescence units of NADPH [40]. The enzyme-inhibition kinetics Ki value determination and the mode of inhibition was determined using the Cornish–Bowden Dixon Plot analysis method.

[2] = molecular target: T2, LmG6PDH (Leuconostoc mesenteroides glucose-6-phosphate dehydrogenase) (Leuconostoc mesenteroides, UniProt P11411); assay: Confirmatory assay on the LmG6PDH enzyme-coupled system; assay type: biochemical; details: for LmG6PDH inhibitory effect (in words): 20 µM compound; for inhibition at 20 µM: read-out: LmG6PDH Inh20
T2 construct: purchased Worthington Biochemical Corporation
Procedure: Two criteria were examined in order to certify on-target confirmed hits: (a) the assessment of potential inhibition to the LmG6PDH enzyme-coupled system, and (b) the precision of the assay (per inhibitor), performed in quadruplicate (N = 4). Compounds were tested in quadruplicate in a black, round-bottom 96-well microplate in which wells were filled with a buffered solution (50 mM triethanolamine, 150 mM NaCl) amounting to a total volume of 206.5 μL that contained the following reagents at final assay concentrations: LmG6PDH (6.1 μg/mL), NADP^+ (0.54 mM), ATP (0.54 mM), MgCl2 (6.9 mM), DMSO (1.0% by vol.), D-glucose-6-phosphate (0.80 mM), and a 3-nitro-2-phenyl-2H-chromene analogue (20.0 μM). The analogue compounds were pre-incubated with the enzyme system a minimum of 10 min prior to the initiation of the assay. The enzymatic reactions were initiated and terminated similarly as described in the TcGlcK primary screen (vide supra). The production of NADPH was monitored using the VANTAstar-F multi-mode microplate reader set to fluorescent mode, λex = 340 nm and λem = 485 nm, over a 120-s timeframe.

[3] = test system: T. brucei brucei (427 strain) bloodstream form; assay: In vitro T. brucei biological assay (Alamar blue); assay type: cell-based, Trypanosoma brucei brucei; details: for anti-T. brucei activity (in words): T. brucei brucei 427 strain bloodstream form
Procedure: The in vitro cell culture preparation of T. brucei brucei (427 strain) trypomastigote bloodstream form followed by treatment with inhibitors has recently been described by Ajayi and colleagues. The 3-nitro-2-phenyl-2H-chromene compounds (inhibitors) that were prepared as 10.0 mM stock solutions in 100% DMSO were thawed from −80 °C to room temperature. HMI-9 medium [Iscove’s modification of DMEM supplemented with 10% FBS, 10% serum plus (SAFC), 0.05 mM bathocuproinesulfonate, 1.5 mM L-cysteine, 1.0 mM hypoxanthine, 0.2 mM β-mercaptoethanol, 0.16 mM thymidine, and 1.0 mM pyruvate] was prepared. In a sterile, round-bottom, 96-well microplate, 100 μL of HMI-9 medium was added to each well. A volume of 2.0 μL of a given compound plus a volume of 98.0 μL of fresh media were both added to a well in the first row of the 96-well microplate; this was performed for each compound to be tested. Solutions were mixed with a micropipette followed by transfer of 100 μL to the next row and repeated. The compound solutions ranged from 0.0781–10.0 μM and this was accomplished by serial dilution using a 2-fold dilution. T. brucei parasites were centrifuged for 10 min at 900× g (without centrifuge breaks). The media was carefully discarded by aspiration and the parasites were resuspended in warm media. Parasites were counted in a Newbauer chamber. Afterwards, the parasites were diluted to 50,000 cells/mL (5000 cells/well) and 100 μL was added to each well of the 96-well microplate using a multichannel pipette. After 48 h, 20.0 μL of Alamar blue was added to each well and the plate was placed into an incubator for 4 h at 37 °C. Fluorescence readings were measured using a Victor Nivo multimode microplate reader (PerkinElmer, Inc.; Shelton, CT, USA) at λex = 530 nm and λem = 590 nm. All measurements were performed in triplicate and IC50 determinations for percent growth inhibition were carried out using GraphPad Prism 10.0. The detergent SDS was used as a positive control and its final solution concentration was 0.5%. Three control experiments were performed, as follows: (a) parasites alone, (b) parasites and 0.5% SDS, and (c) the medium alone.

[4] = percentage of inhibition at 20 µM compound in comparison to controls, N = 4
[5] = Trypanosoma brucei, 48 h, T. brucei brucei 427 strain bloodstream form growth inhibition, N = 3
[6] = Trypanosoma brucei, bound stated in the text for the top seven anti-T. brucei compounds
[7] = T. brucei brucei 427 strain bloodstream form growth inhibition, 48 h, N = 3

T2 sequence (P11411 whole entry): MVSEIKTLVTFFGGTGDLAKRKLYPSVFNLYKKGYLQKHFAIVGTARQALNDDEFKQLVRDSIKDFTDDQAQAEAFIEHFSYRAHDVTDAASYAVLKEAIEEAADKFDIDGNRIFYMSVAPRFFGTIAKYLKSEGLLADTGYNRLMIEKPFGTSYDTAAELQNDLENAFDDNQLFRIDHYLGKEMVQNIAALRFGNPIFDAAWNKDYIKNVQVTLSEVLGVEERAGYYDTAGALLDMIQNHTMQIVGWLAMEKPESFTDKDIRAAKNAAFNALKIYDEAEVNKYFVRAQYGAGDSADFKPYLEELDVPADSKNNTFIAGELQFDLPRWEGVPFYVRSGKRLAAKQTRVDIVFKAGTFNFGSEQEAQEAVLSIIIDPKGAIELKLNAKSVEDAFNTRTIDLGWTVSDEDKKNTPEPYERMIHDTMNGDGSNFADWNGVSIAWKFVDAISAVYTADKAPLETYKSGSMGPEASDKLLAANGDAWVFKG

Row | Structure (SMILES) | Mode of TcGlcK inhibition [1] | Ki [1] [nM] | LmG6PDH inhibitory effect (in words) ([2]; N = 4) | inhibition at 20 µM [2, 4] [%] | anti-T. brucei activity (in words) [3] | IC50 [3, 5] [nM] | IC50 [3, 6] [nM] | IC50 [3, 7] [nM] | inhibition at 20 µM [2] [%]
1 | CCOc1ccc(C2Oc3ccc(Br)cc3C=C2[N+](=O)[O-])cc1OC (centres unmarked) [Compound 1, 6-Bromo-2-(4-ethoxy-3-methoxyphenyl)-3-nitro-2H -chromene] | uncompetitive inhibition | 6200 ± 1200 | did not observe any significant LmG6PDH inhibitory effects | 15.4 ± 0.1 | nanomolar potency | 610 ± 30 | < 750 |  | 
2 | CCOc1ccc(C2Oc3ccc(Br)cc3C=C2[N+](=O)[O-])cc1OCC (centres unmarked) [Compound 2, 6-Bromo-2-(3,4-diethoxyphenyl)-3-nitro-2H -chromene] |  | 46000 |  | 0 |  | 1190 ± 40 |  |  | 
3 | COc1ccc(C2Oc3c(cc(Br)cc3OC)C=C2[N+](=O)[O-])cc1OC (centres unmarked) [Compound 3, 6-Bromo-2-(3,4-dimethoxyphenyl)-8-methoxy-3-nitro-2H -chromene] |  | 24000 |  | 0 | nanomolar potency | < 550 | < 750 | 520 ± 50 | 
4 | COc1ccc(C2Oc3ccc(Br)cc3C=C2[N+](=O)[O-])cc1OC (centres unmarked) [Compound 4, 6-Bromo-2-(3,4-dimethoxyphenyl)-3-nitro-2H -chromene] | mixed-mode inhibition | 5500 ± 1800 | did not observe any significant LmG6PDH inhibitory effects | 12.1 | nanomolar potency | < 550 | < 750 | 440 ± 30 | 
5 | COc1ccc(C2Oc3c(Br)cc(Br)cc3C=C2[N+](=O)[O-])cc1OC (centres unmarked) [Compound 5, 6,8-Dibromo-2-(3,4-dimethoxyphenyl)-3-nitro-2H -chromene] |  | 35000 |  | 0 | nanomolar potency | < 550 | < 750 | 420 ± 40 | 
6 | CCOc1ccc(C2Oc3c(Br)cc(Br)cc3C=C2[N+](=O)[O-])cc1OC (centres unmarked) [Compound 6, 6,8-Dibromo-2-(4-ethoxy-3-methoxyphenyl)-3-nitro-2H -chromene] |  | 6100 | did not observe any significant LmG6PDH inhibitory effects | 16.1 | nanomolar potency | < 550 | < 750 | 360 ± 60 | 
7 | O=[N+]([O-])C1=Cc2cc(Br)cc(Br)c2OC1c1c(Cl)cccc1Cl (centres unmarked) [Compound 7, 2-(2,6-Dichlorophenyl)-6,8-dibromo-3-nitro-2H -chromene] |  | 50000 |  | 0 | nanomolar potency | 900 ± 330 |  |  | 
8 | CCOc1ccc(C2Oc3c(cc(Br)cc3OC)C=C2[N+](=O)[O-])cc1OC (centres unmarked) [Compound 8, 6-Bromo-2-(4-ethoxy-3-methoxyphenyl)-8-methoxy-3-nitro-2H -chromene] |  | 30000 |  | 0 | nanomolar potency | 740 ± 140 | < 750 |  | 
9 | CCOc1ccc(C2Oc3c(Cl)cc(Cl)cc3C=C2[N+](=O)[O-])cc1OCC (centres unmarked) [Compound 9, 6,8-Dichloro-2-(3,4-diethoxyphenyl)-3-nitro-2H -chromene] | mixed-mode inhibition | 12300 ± 5500 | did not observe any significant LmG6PDH inhibitory effects | 10.1 ± 0.1 | nanomolar potency | 660 ± 50 | < 750 |  | 
10 | CCOc1ccc(C2Oc3ccccc3C=C2[N+](=O)[O-])cc1OCC (centres unmarked) [Compound 10, 2-(3,4-Diethoxyphenyl)-3-nitro-2H -chromene] |  | 23000 |  |  |  | 1120 ± 300 |  |  | 0
11 | O=[N+]([O-])C1=Cc2cc(Br)ccc2OC1c1ccccc1Cl (centres unmarked) [Compound 11, 6-Bromo-2-(2-chlorophenyl)-3-nitro-2H -chromene] | noncompetitive inhibition | 20000 ± 4300 | did not observe any significant LmG6PDH inhibitory effects | 15 ± 0.1 | nanomolar potency | 860 ± 200 |  |  | 
12 | O=[N+]([O-])C1=Cc2ccccc2OC1c1c(Cl)cccc1Cl (centres unmarked) [Compound 13, 2-(2,6-Dichlorophenyl)-3-nitro-2H -chromene] |  | 25000 |  | 0 |  | 1280 ± 100 |  |  | 
